Laboratory results as given in patent US6518312B2, “Immune enhancement” (Active Biotech AB, priority 2000, dated 2003).

Tested on: transcription factor AP-1
Test: AP-1-driven luciferase reporter gene assay in transfected Jurkat T cells (Jurkat/AP-1rep)
Assay type: cell-based
Conditions: Jurkat/AP-1rep cells stimulated 5.5 h at 37° C. with phorbol myristate acetate and ionomycin; FIG. 1
Protocol: The compounds of formula (I) were assayed for AP-1 enhancement. The compounds of this invention were tested in assays for the modulation of stimulated activity of an AP-1-driven reporter gene in the Jurkat T cell line. The activation of this reporter gene results in luciferase production and the amounts of produced luciferase parallels the level of AP-1 activity. A high level of AP-1 activity is pivotal to e.g. high production of IL-2.
Cells from the Jurkat T cell line were transfected with an AP-1-driven luciferase gene reporter construct (Parra et al., 1997) together with a selection gene vector. Selected clones from the resulting stable AP-1 reporter gene transfectants were used in the assays for AP-1 transcription factor activity. These transfected Jurkat cells (Jurkat/AP-1rep) were grown in RPMI 1640 supplemented with glutamine, hepes, sodium pyruvate, gentamicin, 10% FCS and G418. To evaluate distinct compounds for their capacity to enhance the AP-1 activity, Jurkat/AP-1rep cells were stimulated for 5.5 h in the temperature of 37° C. with phorbol myristate acetate and ionomycin in the absence and presence of test compounds. The 96 well plates containing the cell cultures were then put on ice until harvested. […] AP-1 activity was measured as luminiscence produced by luciferase substrate, which was added to the wells in conjunction with measurement.

With CCN(CC)C(C)CNC(=O)c1ccc(NC(=O)C(C)C)cc1OC (stereo not shown) [Compound A, N-[(2-Diethylamino)propyl]-4-isobutyrylamino-2-methoxy-benzamide] the “enhancement of the AP-1 driven reporter gene activity (luciferase luminescence)” value was “enhance the activity of the AP-1 driven reporter in a dose dependent fashion down to μM concentrations”.
